Laboratory results taken from ChEMBL document CHEMBL3763113, “Discovery of spirocyclic proline tryptophan hydroxylase-1 inhibitors” (Bioorg Med Chem Lett, 2016).
pIC50: −log10 of the molar value. One block for each compound: values may come before it.

Experiments:
[1] = target: T1, Tryptophan 5-hydroxylase 1 (Homo sapiens, UniProt P17752)
T1 sequence (P17752 whole entry): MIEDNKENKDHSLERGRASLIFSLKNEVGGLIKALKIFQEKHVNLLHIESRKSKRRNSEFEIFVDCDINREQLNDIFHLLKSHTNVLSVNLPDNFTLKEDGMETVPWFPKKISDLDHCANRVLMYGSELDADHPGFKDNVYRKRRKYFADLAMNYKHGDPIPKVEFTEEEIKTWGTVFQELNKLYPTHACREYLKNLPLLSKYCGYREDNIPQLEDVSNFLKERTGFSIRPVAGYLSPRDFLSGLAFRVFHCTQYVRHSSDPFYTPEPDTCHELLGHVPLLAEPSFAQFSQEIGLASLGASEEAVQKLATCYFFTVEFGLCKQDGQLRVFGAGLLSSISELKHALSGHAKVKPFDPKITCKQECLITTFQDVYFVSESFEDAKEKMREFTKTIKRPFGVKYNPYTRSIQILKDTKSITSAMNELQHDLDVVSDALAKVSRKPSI
Description: Inhibition of TPH1 (unknown origin)

Rattus norvegicus [2] = assay: Decrease in 5-HT levels in rat platelet rich plasma at 30 mg/kg, po bid measured after 16 hrs relative to control; type: functional; set-up: scale not given: the % may be the effect or the level left
Rattus norvegicus [3] = assay: Decrease in 5-HT levels in rat intestinal mucosa at 10 mg/kg, po qd measured after 16 hrs relative to control; type: functional; set-up: scale not given: the % may be the effect or the level left
[4] = Clearance in rat at 25 mg/kg, po and 1 mg/kg, iv; type: ADME, organism-based; details: in vivo
[5] = Half life in rat at 1 mg/kg, iv; type: ADME, organism-based; details: in vivo
[6] = Volume of distribution at steady state in rat at 1 mg/kg, iv; type: ADME, organism-based; details: in vivo, read-out: Vdss
[7] = Cmax in rat at 25 mg/kg, po; type: ADME, organism-based; set-up: dose 25 mg/kg, route oral; details: in vivo
[8] = AUC(0 to last) in rat at 25 mg/kg, po; type: ADME, organism-based; set-up: dose 25 mg/kg, time 0 - last, route oral; details: in vivo
Rattus norvegicus [9] = assay: Half life in rat assessed as (S)-8-(2-amino-6-((R)-1-(4-chloro-2-(3-methyl-1H-pyrazol-1-yl)phenyl)-2,2,2-trifluoroethoxy)pyrimidin-4-yl)-2,8-diazaspiro[4.5]decane-3-carboxylic acid at 1 mg/kg, iv; type: ADME, organism-based; details: in vivo
Rattus norvegicus [10] = assay: Cmax in rat assessed as (S)-8-(2-amino-6-((R)-1-(4-chloro-2-(3-methyl-1H-pyrazol-1-yl)phenyl)-2,2,2-trifluoroethoxy)pyrimidin-4-yl)-2,8-diazaspiro[4.5]decane-3-carboxylic acid at 25 mg/kg, po; type: ADME, organism-based; set-up: dose 25 mg/kg, route oral; details: in vivo
Rattus norvegicus [11] = assay: AUC(0 to last) in rat assessed as (S)-8-(2-amino-6-((R)-1-(4-chloro-2-(3-methyl-1H-pyrazol-1-yl)phenyl)-2,2,2-trifluoroethoxy)pyrimidin-4-yl)-2,8-diazaspiro[4.5]decane-3-carboxylic acid at 25 mg/kg, po; type: ADME, organism-based; set-up: dose 25 mg/kg, route oral, time 0 - last; details: in vivo
Mus musculus [12] = assay: Decrease in 5-HT levels in mouse at 50 mg/kg, po administered as single dose for 16 hrs; type: functional
Mus musculus [13] = assay: Decrease in 5-HT levels in mouse at 10 mg/kg, po administered as single dose for 16 hrs; type: functional
Rattus norvegicus [14] = assay: Decrease in 5-HT levels in rat platelet rich plasma at 10 mg/kg, po qd measured after 16 hrs relative to control; type: functional; set-up: scale not given: the % may be the effect or the level left
Rattus norvegicus [15] = assay: Decrease in 5-HT levels in rat platelet rich plasma at 30 mg/kg, po qd measured after 16 hrs relative to control; type: functional; set-up: scale not given: the % may be the effect or the level left
Rattus norvegicus [16] = assay: Decrease in 5-HT levels in rat intestinal mucosa at 30 mg/kg, po qd measured after 16 hrs relative to control; type: functional; set-up: scale not given: the % may be the effect or the level left
Rattus norvegicus [17] = assay: Decrease in 5-HT levels in rat intestinal mucosa at 30 mg/kg, po bid measured after 16 hrs relative to control; type: functional; set-up: scale not given: the % may be the effect or the level left

- pIC50 [1]: 5.47
SMILES: Cc1ccn(-c2cc(Cl)ccc2[C@@H](Oc2cnc(N3CCC4(CC3)CNC(C(=O)O)C4)cn2)C(F)(F)F)n1 (stereo partly specified)

- pIC50 [1]: 5.23
SMILES: Cc1ccn(-c2cc(Cl)ccc2[C@@H](Oc2cnnc(N3CCC4(CC3)CNC(C(=O)O)C4)c2)C(F)(F)F)n1 (stereo partly specified)

- clearance [4]: 178 mL/min/kg
- half-life [5]: 24 min
- Vd [6]: 3.1 L/kg
- Cmax [7]: 249 ng/mL
- AUC(0-t) [8]: 140 ng·h/mL
- t1/2 (Rattus norvegicus [9]): 271 min
- Cmax (Rattus norvegicus [10]): 2253 ng/mL
- AUClast (Rattus norvegicus [11]): 2924 ng·h/mL
SMILES: CCOC(=O)[C@@H]1CC2(CCN(c3cc(O[C@H](c4ccc(Cl)cc4-n4ccc(C)n4)C(F)(F)F)nc(N)n3)CC2)CN1
- Activity (Rattus norvegicus [2]): 72%
- Activity (Rattus norvegicus [3]): 76%
- inhibition in vivo at 50 mg/kg (Mus musculus [12]): 56%
- inhibition in vivo at 10 mg/kg (Mus musculus [13]): 32%
- Activity (Rattus norvegicus [14]): 76%
- Activity (Rattus norvegicus [15]): 71%
- Activity (Rattus norvegicus [16]): 62%
- Activity (Rattus norvegicus [17]): 38%

- pIC50 [1]: 5.64
SMILES: Cc1ccn(-c2cc(Cl)ccc2[C@@H](Oc2nc(N)nc(N3CCC4(CC3)CNC(C(=O)O)C4)n2)C(F)(F)F)n1 (stereo partly specified)

- pIC50 [1]: 4.70
SMILES: Cc1ccn(-c2cc(Cl)ccc2[C@@H](Oc2cncc(N3CCC4(CC3)CNC(C(=O)O)C4)n2)C(F)(F)F)n1 (stereo partly specified)

- pIC50 [1]: 6.68
SMILES: Cc1ccn(-c2cc(Cl)ccc2[C@@H](Oc2ccnc(N3CCC4(CC3)CNC(C(=O)O)C4)c2)C(F)(F)F)n1 (stereo partly specified)
